Measurements as given in the NIST ThermoML archive (doi:10.1021/je030102f).
Numbers after ± are expanded uncertainties.

Legend:
[1] = 101.33 kPa, Liquid, vibrating tube
[2] = xn = mol fraction of the nth substance listed; details: 101.33 kPa, Liquid, vibrating tube

Compound	mass density ([1]; 283.15 K) [kg/m3]	mass density ([1]; 288.15 K) [kg/m3]	mass density ([1]; 293.15 K) [kg/m3]	mass density ([1]; 298.15 K) [kg/m3]	mass density ([1]; 303.14 K) [kg/m3]	mass density ([1]; 308.15 K) [kg/m3]	mass density ([1]; 313.14 K) [kg/m3]	mass density ([1]; 318.14 K) [kg/m3]	mass density ([1]; 323.14 K) [kg/m3]	mass density ([2]; 283.15 K, x2 = 0) [kg/m3]	mass density ([2]; 318.14 K, x2 = 0) [kg/m3]	mass density ([2]; 323.14 K, x2 = 0) [kg/m3]	further results
CC(C)=O [acetone]	801.669 ± 0.14	796.037 ± 0.14	790.355 ± 0.14	784.638 ± 0.14	778.876 ± 0.14	773.065 ± 0.14	767.205 ± 0.14	761.288 ± 0.14	755.314 ± 0.14	–	–	–	–
CC(C)=O [acetone] + CCC(=O)O	–	–	–	–	–	–	–	–	–	–	–	–	mass density ([2]; 283.15 K, x1 = 1): 801.669 ± 0.14 kg/m3; mass density ([2]; 288.15 K, x1 = 1): 796.037 ± 0.14 kg/m3; mass density ([2]; 293.15 K, x1 = 1): 790.355 ± 0.14 kg/m3; mass density ([2]; 298.15 K, x1 = 1): 784.638 ± 0.14 kg/m3; mass density ([2]; 303.14 K, x1 = 1): 778.876 ± 0.14 kg/m3; mass density ([2]; 308.15 K, x1 = 1): 773.065 ± 0.14 kg/m3; mass density ([2]; 313.14 K, x1 = 1): 767.205 ± 0.14 kg/m3; mass density ([2]; 318.14 K, x1 = 1): 761.288 ± 0.14 kg/m3; mass density ([2]; 323.14 K, x1 = 1): 755.314 ± 0.14 kg/m3
CCC(=O)O [propanoic acid]	1004.11 ± 0.51	998.688 ± 0.51	993.261 ± 0.51	987.847 ± 0.51	982.44 ± 0.5	977.037 ± 0.5	971.635 ± 0.5	966.24 ± 0.49	–	–	–	–	mass density ([1]; 323.15 K): 960.843 ± 0.49 kg/m3
O [water]	999.691 ± 0.082	–	–	–	–	–	–	990.13 ± 0.084	988.003 ± 0.084	–	–	–	–
O [water] + CC(C)=O	–	–	–	–	–	–	–	–	–	999.691 ± 0.082	990.13 ± 0.084	988.003 ± 0.084	–
O [water] + CCC(=O)O	–	–	–	–	–	–	–	–	–	999.691 ± 0.082	990.13 ± 0.084	988.003 ± 0.084	–
